Results reported in US20240091203A1, “METHODS FOR TREATING NON-OBSTRUCTIVE HYPERTROPHIC CARDIOMYOPATHY” (Cytokinetics, Incorporated, priority 2022, published 2024).
“And” between values parts separate entries of the source, which are not always exact repeats. Equal values may be shown once. “Also recorded” adds a separate entry of the source.

Columns and labels:
[1] = test system: patients with symptomatic non-obstructive HCM (nHCM) or HCM with MVO; experiment: Phase 2 trial (Example 2): cardiac biomarkers NT-proBNP and hs-cTnI; assay type: in vivo, human
Description: Echocardiograms obtained on day 1 of treatment, at weeks 2, 4, 6, and 10 of treatment, and two weeks after the last dose were analyzed for several key structural and physiologic metrics; measurements of N-terminal prohormone of brain natriuretic peptide (NT-proBNP), and cardiac troponin I were also monitored. Ambulatory cardiac monitoring was conducted one week before day 1 of treatment and at week 9.
The exploratory PD endpoints included but were not limited to: (i) The relationship of plasma concentration ranges of CK-3773274 to LVEF, LVFS, global longitudinal strain (GLS); (ii) Observed values and change from baseline in the echocardiography parameters described in Table 13 and evaluated by the core laboratory during treatment at Weeks 2, 4, 6, 10, and 12; (iii) Change in NT-proBNP from baseline to Week 10; (iv) Change in hs-cTnI from baseline to Week 10; (v) Proportion of patients with LVEF ≥50% and ≥50% reduction from baseline NT-proBNP.
For select PD measurements with statistical distributions likely to depart from normal, proportional change from baseline was evaluated.

healthy adults = experiment: Phase 1 pharmacodynamics by echocardiography (LVEF and other parameters, PK/PD); assay type: in vivo, human
Description: Echocardiography. For PD assessments of LVEF, echocardiograms for the SAD and MAD cohorts were interpreted by the echocardiography core laboratory and used for all data analysis and dose level review decisions while immediate local interpretation of the echocardiograms was performed for safety monitoring. […] Echocardiograms on day 3 (48 h after dosing) were obtained only if the 24 h LVEF had not returned to near or above baseline, as determined by the investigator. In the MAD cohorts, echocardiograms were obtained on day −1, pre-dose on day 1, and at 1.5 h post dose on days 2, 4, and 9, and at 1.5, 24, and 72 h post dose on day 14 (for the 5-mg and 10-mg cohorts) or on day 17 (for the 7.5-mg cohort). Echocardiograms were obtained 3 days after the last dose (on day 17 or 20) only if the participant's prior LVEF was not near or above baseline, as determined by the investigator.
All participants who received ≥1 dose of study drug and had ≥1 pre-dose and ≥1 post-dose echocardiographic measurement were included in the PD analysis set. […] Descriptive statistics of the echocardiographic parameters were generated using SAS® Version 9.3 or higher.
Dose-response analysis was performed using analysis of covariance (ANCOVA) to identify the least-squares mean difference (aficamten minus placebo). To analyze the impact of drug dose on echocardiographic parameters in the SAD and MAD cohorts, an inferential analysis was conducted on the PD analysis set using linear mixed models for repeated-measures analysis of covariance (ANCOVA). The ANCOVA used baseline value as a covariate, included treatment, time-point, and time-point-by-treatment interaction as fixed effects, and change from baseline as the dependent variable. The unstructured variance-covariance structure was used, and the model accounted for the time-point repeated measures. The ANCOVA analysis was conducted separately for each study part and for each PD parameter. The least-squares means, the difference in least squares means (active minus placebo), and the associated 2-sided 95% CIs were presented for each comparison.
Analyses of concentration ‘bin’ and exposure-response were also performed using ANCOVA. SAS® PROC MIXED was used for all comparative analyses. […] A concentration bin ANCOVA was conducted using linear mixed models for repeated-measures analyses with concentration bin group as a fixed effect, baseline PD parameters as a covariate, change from baseline as the dependent variable, and a random intercept to adjust for the repeated measures. The unstructured variance-covariance structure was used. […] The ANCOVA compared the change in PD parameters between each bin versus the pooled placebo group.
The least-squares means, the difference in least squares means (bin group minus placebo), and the associated 2-sided 95% CIs were presented for each comparison. The ANCOVA analysis was conducted separately for each study part. For all time-points at which both PK data and PD measures were available, the time-points were pooled for the analysis. […] From least to greatest, the data were then divided into 5 groups of observations (‘bins’), each consisting of 20% of the data points. Each bin was treated as a separate group.
The above analysis was then repeated using concentration as a continuous variable to estimate the exposure-response trend. Both a random intercept effect and a random concentration effect were added to the ANCOVA. The estimate of the concentration slope, with corresponding 2-sided 95% CIs, and the ANCOVA analyses were presented for each study part.
For all time-points at which both PK data and PD measures were available, the time points were pooled for the analysis. A nominal significance level of 5% was used for statistical comparisons, without adjustment for multiplicity.

[2] = end of treatment (week 10), second interim
[3] = SAD 50 mg (n = 11), change from baseline at […], mean

## CCc1nc(-c2ccc3c(c2)CC[C@H]3NC(=O)c2cnn(C)c2)no1 [aficamten, (R)—N-(5-(5-ethyl-1,2,4-oxadiazol-3-yl)-2,3-dihydro-1H-inden-1-yl)-1-methyl-1H-pyrazole-4-carboxamide]
[1]; 7 patients with MVO, second interim
  symptoms, NT-proBNP and hs-Troponin I in patients with mid-ventricular obstruction (MVO): All patients in this subgroup showed symptom improvement and reduction in both NT-proBNP and hs-Troponin I levels
[1]; after the 2-week washout
  cardiac biomarkers (NT-proBNP, hs-cTnI) after washout: rebounded upwards off drug
[1]; end of treatment (week 10), interim, p<0.0001
  reduction of NT-proBNP (geometric mean, proportional change from baseline): 56%
[1]; end of treatment (week 10), interim, p<0.05
  reduction of hs-cTnI (proportional to baseline): 21%
[1]; [2]
  mean (SE) reduction of NT-proBNP: -870 pg/mL
  mean (SE) reduction of hs-cTnI: -24.8 ng/L
[1]; end of treatment (week 10), second interim, p<0.0001
  reduction of NT-proBNP: 55%
[1]; end of treatment (week 10), second interim, p<0.05
  reduction of hs-cTnI: 21%
Healthy adults; MAD cohorts, bin concentration or linear regression analysis
  relationship of LVEF to plasma concentration of aficamten: did not reach statistical significance
Healthy adults; MAD cohorts, plasma aficamten concentrations of ≤180 ng/ml
  suppression of LVEF versus plasma concentration: minimal suppression of LVEF
Healthy adults; Phase 1, rapidly reversible upon study drug discontinuation
  participants with decreases in LVEF to <50%: Three participants
Healthy adults; SAD 50 mg (n = 11), […], mean
  E (peak E wave velocity): 64 cm/s
Healthy adults; [3]
  A (peak A wave velocity), CFB: 2.5 cm/s
  E (peak E wave velocity), CFB: -2.7 cm/s
  Heart rate, CFB: 0.5 bpm
  IVCT, CFB: 0.4 ms
  IVRT, CFB: 0.5 ms
  LAV, CFB: 0 mL
  LV EDV, CFB: 6.6 mL
  LV ESV, CFB: 8.1 mL
  LV ET, CFB: 1.9 ms
  LV SV, CFB: -6.2 mL
  LVEF, CFB: −5.8%
  e′ lateral, CFB: -1.3 cm/s
Healthy adults; SAD 50 mg and 75 mg, 3 participants
  time after dosing at which LVEF <50% was noted: approximately 1.5 h
Healthy adults; SAD 1-mg cohort
  participants with absolute reduction in LVEF of ≥5% from baseline: no participants
Healthy adults; SAD 10-mg cohort
  participants with absolute reduction in LVEF of ≥5% from baseline: no participants
Healthy adults; SAD 25-mg cohort
  participants with absolute reduction in LVEF of ≥5% from baseline: no participants
Healthy adults; SAD 50-mg cohort, 2 of 11, core laboratory
  participants with reduction in LVEF to <50%: 18%
Healthy adults; SAD 50-mg cohort, […] post dose, p=0.0001
  reduction in LVEF from baseline, least-squares mean difference: 5.5%
Healthy adults; SAD 50-mg cohort, per core laboratory assessment
  LVEF of the 2 participants with LVEF <50%: 48.2% and 45.5%
Healthy adults; SAD 75-mg cohort, 1 of 1
  participants with reduction in LVEF to <50%: 100%
Healthy adults; SAD cohorts, core laboratory
  participants with LVEF <45%: Only the participant in the 75-mg cohort
Healthy adults; SAD cohorts, highest bin 122 to 524 ng/ml p<0.0001, concentration-slope p=0.0027
  relationship of LVEF to plasma concentration of aficamten: statistically significant decrease in LVEF; also recorded: trend toward a decrease in LVEF
Healthy adults; any of the MAD cohorts, core laboratory
  reduction in LVEF to <50%: not observed
Healthy adults; following single doses
  time for reversal of decreases in LVEF to values <50%: ≤ 6 h
Healthy adults; participants whose LVEF fell below 50%
  time for LVEF to return to baseline: ≤ 24 h
Healthy adults; single dose of 75 mg, 1 participant
  LVEF after reduction: 34.1%
Healthy adults; single participant, SAD 75 mg, […] post dose
  reduction in LVEF: 31.5%
